The values below come from ChEMBL document CHEMBL1138109, “Semicarbazone-based inhibitors of cathepsin K, are they prodrugs for aldehyde inhibitors?” (Bioorg Med Chem Lett, 2006).

Series [1] concerns the target T1, Cathepsin K (Homo sapiens, UniProt P43235).
T1 sequence (P43235 whole entry): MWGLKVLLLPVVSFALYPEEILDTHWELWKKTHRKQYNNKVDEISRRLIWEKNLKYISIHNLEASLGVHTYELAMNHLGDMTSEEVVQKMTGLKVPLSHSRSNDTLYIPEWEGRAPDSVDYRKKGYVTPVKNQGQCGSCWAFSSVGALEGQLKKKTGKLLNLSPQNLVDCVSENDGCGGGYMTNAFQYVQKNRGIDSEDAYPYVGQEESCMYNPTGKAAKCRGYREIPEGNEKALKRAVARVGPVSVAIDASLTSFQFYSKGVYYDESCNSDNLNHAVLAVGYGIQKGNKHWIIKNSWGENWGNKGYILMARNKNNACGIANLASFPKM
Description: Inhibition of recombinant human cathepsin K in a fluorescence assay.

Series [2] deals with Cathepsin B (Homo sapiens, UniProt P07858). Kind of series: Inhibition of recombinant human cathepsin B in a fluorescence assay.
For series [3], the target named is T2, Pro-cathepsin H (Homo sapiens, UniProt P09668).
T2 sequence (P09668 whole entry): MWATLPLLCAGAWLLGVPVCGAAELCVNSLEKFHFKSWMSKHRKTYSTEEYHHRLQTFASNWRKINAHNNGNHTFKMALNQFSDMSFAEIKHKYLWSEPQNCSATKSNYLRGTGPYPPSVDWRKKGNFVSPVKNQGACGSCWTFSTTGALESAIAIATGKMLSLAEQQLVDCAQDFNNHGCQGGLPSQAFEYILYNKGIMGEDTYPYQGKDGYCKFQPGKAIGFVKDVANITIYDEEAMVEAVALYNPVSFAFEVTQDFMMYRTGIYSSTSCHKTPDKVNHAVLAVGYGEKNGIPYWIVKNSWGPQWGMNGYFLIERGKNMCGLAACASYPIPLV
Description: Inhibition of recombinant human cathepsin H in a fluorescence assay.

The target in series [4] is Procathepsin L (Homo sapiens, UniProt P07711). Description: Inhibition of recombinant human cathepsin L in a fluorescence assay.
Sequence of Procathepsin L (P07711 whole entry): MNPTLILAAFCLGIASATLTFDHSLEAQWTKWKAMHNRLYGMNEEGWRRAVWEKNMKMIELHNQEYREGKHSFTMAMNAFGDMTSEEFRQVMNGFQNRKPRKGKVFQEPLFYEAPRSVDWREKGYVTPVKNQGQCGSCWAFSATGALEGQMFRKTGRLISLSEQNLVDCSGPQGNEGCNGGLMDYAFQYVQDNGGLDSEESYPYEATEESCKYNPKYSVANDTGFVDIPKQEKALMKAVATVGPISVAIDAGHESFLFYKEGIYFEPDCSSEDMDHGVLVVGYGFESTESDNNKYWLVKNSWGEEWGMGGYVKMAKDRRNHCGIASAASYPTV
Series [5] in a line: Permeability across MDCK cells. Type of series: ADME, cell-based, Canis lupus familiaris. To be noted: dog.
Series [6] is described as follows: Solubility in fasted state-simulated intestinal fluid at pH 6.8. Type of series: physicochemical.
Series [7] concerns Rattus norvegicus. Description: (§1) Terminal half life in iv dosed Han Wistar rat. Type of series: ADME, organism-based. Particulars: in vivo.
Series [8] is filed under the species Rattus norvegicus. Kind of series: (§2) Volume of distribution in Han Wistar rat. Type of series: ADME, organism-based. Particulars: in vivo.
The nature of series [9]: Oral bioavailability in male Han Wistar rat. In kind it is ADME, organism-based. Particulars: in vivo.
Series [10] can be described thus: as §1. In kind it is ADME, organism-based. Particulars: Han Wistar, in vivo, read-out: beta t1/2.
Series [11] in a line: Clearance in Han Wistar rat. Type of series: ADME, organism-based. To be noted: in vivo.
Series [12] is described as follows: as §2. Particulars: Han Wistar, in vivo. In kind it is ADME, organism-based.
The target of series [13] is T3, Cathepsin K (Rattus norvegicus, UniProt O35186).
T3 sequence (O35186 whole entry): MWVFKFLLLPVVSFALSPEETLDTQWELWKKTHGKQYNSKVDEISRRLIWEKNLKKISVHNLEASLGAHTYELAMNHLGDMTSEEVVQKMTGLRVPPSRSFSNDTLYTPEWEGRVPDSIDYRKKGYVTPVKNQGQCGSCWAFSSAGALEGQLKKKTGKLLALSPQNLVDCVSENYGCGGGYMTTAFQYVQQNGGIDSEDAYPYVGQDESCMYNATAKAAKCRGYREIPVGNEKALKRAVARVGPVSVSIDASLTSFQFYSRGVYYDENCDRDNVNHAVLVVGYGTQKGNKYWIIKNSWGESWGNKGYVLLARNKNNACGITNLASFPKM
Kind of series: Inhibition of rat cathepsin K.

Converted amounts (≈) assume the structure as drawn. Bounds are passed on as bounds.

With `CCCC[C@@H](/C=N/NC(=O)Nc1ccccc1)NC(=O)OC(C)(C)C`, the 50% inhibitory concentration (IC50) (usually the concentration needed to halve the response being measured) in series [1] amounted to 400 nM.

As for `CCCC[C@@H](/C=N/NC(=O)c1ccccc1)NC(=O)OC(C)(C)C`, the IC50 in series [1] amounted to 220 nM.

Regarding `CCCC[C@@H](/C=N/NC(=O)N1CCCc2ccccc21)NC(=O)OC(C)(C)C`, the IC50 in series [1] was 59 nM.

Regarding `CC(C)C[C@@H](/[13CH]=N/NC(=O)N1CCOCC1)NC(=O)OC(C)(C)C`, the IC50 in [1] was 110 nM.

`CCCC[C@@H](/C=N/NC(=O)N(C)C)NC(=O)OC(C)(C)C`: the IC50 in [1] is 72 nM.

Consider `CCCC[C@@H](/C=N/OC(=O)N1CCOCC1)NC(=O)OC(C)(C)C`, for which the IC50 in [1] stood at 1100 nM.

For `CCCC[C@@H](/C=N/NC(=O)N1CCOCC1)NC(=O)O[C@H](Cc1ccccc1)C(C)C`, the half-inhibitory concentration (IC50) in [1] stood at 0.33 nM; in series [2] it was 18 nM; in [3] it was 190 nM; in series [4], 12 nM.

For the molecule `CCCC[C@@H](/C=N/NC(=O)N(CC)CC)NC(=O)OC(C)(C)C`, in series [1], the half-inhibitory concentration (IC50) stood at 40 nM.

Regarding `CCCC[C@@H](C=O)NC(=O)OC1(Cc2ccccc2)CCCC1`, the IC50 in series [3] is > 13000 nM.

For the molecule `CCCC[C@@H](/C=N/N[N+]1=CSCC1)NC(=O)OC(C)(C)C`, in series [1], the concentration for half-maximal inhibition (IC50) was 470 nM.

As for `CCCC[C@@H](/C=N/NC(=O)N1CCCCC1)NC(=O)OC(C)(C)C`, the IC50 in series [1] amounted to 58 nM.

In the case of `CCCC[C@@H](/C=N/NC(=O)NCCc1ccccc1)NC(=O)OC(C)(C)C`, in series [1], the IC50 worked out at 260 nM.

Consider `CCCC[C@@H](/C=N/NC(=O)N1CCc2ccccc21)NC(=O)OC1(Cc2ccccc2)CCCC1`, for which the IC50 is 1.1 nM in series [1], 1800 nM in series [2], > 13000 nM in [3] and 3400 nM in series [4].

On to `CCCC[C@@H](/C=N/N(C)C(=O)NCCc1ccccc1)NC(=O)OC(C)(C)C`, for which, in series [1], the IC50 turned out to be 11000 nM.

In the case of `CCCC[C@@H](/C=N/NC(=O)NCCC(=O)OCC)NC(=O)OC(C)(C)C`, the IC50 in series [1] turned out to be 470 nM.

`CCCC[C@@H](C=O)NC(=O)O[C@@H](C)Cc1ccccc1`: the IC50 in [3] came to 40 nM.

For `CCCC[C@@H](/C=N/NC(=O)NC)NC(=O)OC(C)(C)C`, in series [1], the IC50 stood at 280 nM.

Turning to `CCCC[C@@H](/C=N/NC(=O)N1CCc2ccccc2C1)NC(=O)OC(C)(C)C`, in series [1], the IC50 was determined as 93 nM.

As to `CCCC[C@@H](/C=N/N(C)C(=O)N(C)CCc1ccccc1)NC(=O)OC(C)(C)C`, the IC50 in series [1] is 520 nM.

Consider `CCCC[C@@H](/C=N/NC(=O)NC(=O)OC)NC(=O)OC(C)(C)C`, for which the IC50 in series [1] was found to be 180 nM.

`CCCC[C@@H](/C=N/NC(=O)NC(C)(C)C)NC(=O)OC(C)(C)C`: the IC50 in series [1] worked out at 160 nM.

With `CCCC[C@@H](/C=N/NC(=O)NCc1ccccc1)NC(=O)OC(C)(C)C`, the IC50 in [1] is 410 nM.

As to `CCCC[C@@H](/C=N/N=C(N)N)NC(=O)OC(C)(C)C`, the IC50 in series [1] stood at 33000 nM.

With `CCCC[C@@H](/C=N/NC(=O)N1CCCC1)NC(=O)OC(C)(C)C`, the 50% inhibitory concentration (IC50) in [1] is 36 nM. Besides, in series [5], the apparent permeability coefficient (Papp) (as a rule, a coefficient for how fast a substance crosses the barrier) is 20 ×10⁻⁶ cm/s. Also, the solubility – broadly, how much of the substance goes into solution per volume – in series [6] was 71 µg/mL (≈ 217 µM). The “beta t1/2” value in series [7] was found to be 18 min. In series [8], the volume of distribution (Vdss) (as a rule, a proportionality between amount in the body and measured concentration, not a real space) turned out to be 0.43 L/kg. In addition, the bioavailability (usually the share of a dose that reaches the circulation, judged against a reference dose that is usually intravenous) in [9] amounted to 0%.

In the case of `CCCC[C@@H](C=O)NC(=O)O[C@H](Cc1ccccc1)C(C)C`, the values for the concentration for half-maximal inhibition (IC50) in [2], in series [3] and in [4] were 27 nM, 18 nM and 12 nM, respectively.

Turning to `CCCC[C@@H](/C=N/NC(N)=O)NC(=O)OC(C)(C)C`, the IC50 in [1] was determined as 350 nM.

For `CC(C)C[C@@H]([13CH]=O)NC(=O)OC(C)(C)C`, in series [1], the IC50 amounted to 31 nM.

In the case of `CCCC[C@@H](/C=N/NC(=O)SC(C)C)NC(=O)OC(C)(C)C`, in [1], the IC50 was 830 nM.

In the case of `CCCC[C@@H](/C=N/NC(=O)N1CCc2ccccc21)NC(=O)OC(C)(C)C`, the 50% inhibitory concentration (IC50) in series [1] was 48 nM; in series [2] it was 35000 nM; in series [3], > 13000 nM; in series [4], 14000 nM. In series [5], this molecule had an apparent permeability coefficient (Papp) of 15 ×10⁻⁶ cm/s. In addition, the concentration in solution in [6] (solubility) came to 33 µg/mL (≈ 88.1 µM). Besides, in series [7], the “beta t1/2” value is given as 10 min. Moreover, the Vdss in series [8] was found to be 0.54 L/kg. The molecule further had a bioavailability in series [9] of 0%.

For the molecule `CCCC[C@@H](/C=N/NS(=O)(=O)N(C)C)NC(=O)OC(C)(C)C`, the IC50 in [1] came to 72 nM. Also, in series [5], the Papp worked out at 77 ×10⁻⁶ cm/s. Also, the solubility in [6] was 380 µg/mL (≈ 1130 µM). Also, the half-life in [10] turned out to be 39 min. In addition, the clearance – broadly, the rate of elimination divided by the concentration – in [11] was found to be 25 mL/min/kg. In addition, the Vd – broadly, the apparent volume that relates the amount in the body to the concentration in plasma or blood – in series [12] stood at 0.39 L/kg. This molecule also came in with a bioavailability in series [9] of 26%.

Regarding `CCCC[C@@H](/C=N/NC(=O)N1CCOCC1)NC(=O)OC(C)(C)C`, the 50% inhibitory concentration (IC50) in series [1] is 35 nM; in series [2] it was 32000 nM; in [3], > 13000 nM; in series [4], 11000 nM. The same molecule gave a Papp in series [5] of 6.2 ×10⁻⁶ cm/s. The amount in solution in series [6] (solubility) came to 120 µg/mL (≈ 350 µM). Also, the half-life in series [10] is 22 min. Also, the clearance in [11] came out at 43 mL/min/kg. The molecule also had a Vd in series [12] of 0.57 L/kg. In [9], this molecule came in with a bioavailability of 3.9%.

In the case of `CCCC[C@@H](/C=N/NC(=O)CC(C)C)NC(=O)OC(C)(C)C`, the concentration for half-maximal inhibition (IC50) in series [1] is 200 nM.

In the case of `CCCC[C@@H](/C=N/NC(=O)NC(C)C)NC(=O)OC(C)(C)C`, the IC50 in series [1] was 170 nM.

As to `CCCC[C@@H](/C=N/NC(=O)NCC)NC(=O)OC(C)(C)C`, the IC50 in [1] was found to be 490 nM.

On to `CCCC[C@@H](/C=N/NC(=O)OC(C)C)NC(=O)OC(C)(C)C`, for which, in series [1], the IC50 came to 130 nM.

Consider `CCCC[C@@H](/C=N/N=C(\S)NC(C)C)NC(=O)OC(C)(C)C`, for which the IC50 in series [1] was determined as 170 nM.

`CCCC[C@@H](C=O)NC(=O)OC(C)(C)C`: the values for the IC50 in series [2], in series [3] and in series [4] were 32000 nM, > 13000 nM and 8900 nM, respectively.

As for `CCCC[C@@H](/C=N/NC(=O)N1CCOCC1)NC(=O)O[C@@H](C)Cc1ccccc1`, the IC50 in series [1] was found to be 0.94 nM; in [2], 270 nM; in series [3], 230 nM; in series [4], 540 nM; in [13], 130 nM. In addition, the Papp in series [5] stood at 14 ×10⁻⁶ cm/s. The concentration in solution in series [6] (solubility) was 60 µg/mL (≈ 148 µM). Moreover, the “beta t1/2” value in [7] worked out at 9 min. Further, the Vdss in [8] was 0.22 L/kg. The bioavailability in series [9] was 0%.

Regarding `CCCC[C@@H](/C=N/NC(=O)NCC(=O)OCC)NC(=O)OC(C)(C)C`, the IC50 in series [1] is 520 nM.

Consider `CCCC[C@@H](/C=N/NC(=O)N(C)CCc1ccccc1)NC(=O)OC(C)(C)C`, for which, in [1], the 50% inhibitory concentration (IC50) is 45 nM.

As to `CCCC[C@@H](/C=N/NC(=O)C(F)(F)F)NC(=O)OC(C)(C)C`, the half-maximal inhibitory concentration (IC50) in [1] came to 24 nM.
